Assay results published in PubChem BioAssay (NCI).
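Abbreviation: GI50, concentration required for 50% inhibition of growth. The concentration for full growth arrest is given as TGI.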

Experiments:
Assay in all cases: growth of human tumour cells (NCI), 384-well format
[1] = tested on: 786-0 renal
[2] = tested on: A498 renal
[3] = tested on: A549 NSCLC
[4] = tested on: ACHN renal
[5] = tested on: CAKI-1 renal
[6] = tested on: CCRF-CEM leukemia
[7] = tested on: COLO 205 colon
[8] = tested on: DU-145 prostate
[9] = tested on: EKVX NSCLC
[10] = tested on: HCT-116 colon
[11] = tested on: HCT-15 colon
[12] = tested on: HL-60(TB) leukemia
[13] = tested on: HOP-62 NSCLC
[14] = tested on: HOP-92 NSCLC
[15] = tested on: IGROV1 ovarian
[16] = tested on: K-562 leukemia
[17] = tested on: KM12 colon
[18] = tested on: LOX IMVI melanoma
[19] = tested on: M14 melanoma
[20] = tested on: MALME-3M melanoma
[21] = tested on: MCF7 breast
[22] = tested on: MDA-MB-231 breast
[23] = tested on: MDA-MB-435 melanoma
[24] = tested on: MDA-MB-468 breast
[25] = tested on: MOLT-4 leukemia
[26] = tested on: NCI-H23 lung
[27] = tested on: NCI-H322M lung
[28] = tested on: NCI-H460 NSCLC
[29] = tested on: NCI-H522 lung
[30] = tested on: OVCAR-5 ovarian
[31] = tested on: OVCAR-8 ovarian
[32] = tested on: PC-3 prostate
[33] = tested on: RXF 393 renal
[34] = tested on: SF-268 CNS
[35] = tested on: SF-295 CNS
[36] = tested on: SF-539 CNS
[37] = tested on: SK-MEL-2 melanoma
[38] = tested on: SK-MEL-28 melanoma
[39] = tested on: SK-MEL-5 melanoma
[40] = tested on: SK-OV-3 ovarian
[41] = tested on: SN12C renal
[42] = tested on: SW-620 colon
[43] = tested on: T-47D breast
[44] = tested on: TK-10 renal
[45] = tested on: U251 glioblastoma
[46] = tested on: UACC-257 melanoma
[47] = tested on: UO-31 renal

## Cc1cc(C)c(CNC(=O)c2cc(-c3ccc(CN4CCOCC4)cc3)cc3c2cnn3C2CCCC2)c(=O)[nH]1
[1]
  GI50: 5.82 µM
  TGI: 16.9 µM
[2]
  GI50: 3.92 µM
  TGI: 15.4 µM
[3]
  GI50: 6.65 µM
  TGI: 17.7 µM
[4]
  GI50: 10.3 µM
  TGI: 23.9 µM
[5]
  GI50: 9.04 µM
  TGI: 22.2 µM
[6]
  GI50: 3.42 µM
  TGI: 8.99 µM
[7]
  GI50: 8.25 µM
  TGI: 20.5 µM
[8]
  GI50: 13.5 µM
  TGI: 27.6 µM
[9]
  GI50: 3.41 µM
  TGI: 21.6 µM
[10]
  GI50: 7.13 µM
  TGI: 19.5 µM
[11]
  GI50: 3.03 µM
  TGI: 11.6 µM
[12]
  GI50: 4.13 µM
  TGI: 12.6 µM
[13]
  GI50: 6.39 µM
  TGI: 17.4 µM
[14]
  GI50: 6.29 µM
  TGI: 17.1 µM
[15]
  GI50: 1.02 µM
  TGI: 25 µM
[16]
  GI50: 4.84 µM
  TGI: 16.5 µM
[17]
  GI50: 8.88 µM
  TGI: 21.7 µM
[18]
  GI50: 7.45 µM
  TGI: 20.7 µM
[19]
  GI50: 6.87 µM
  TGI: 17.6 µM
[20]
  GI50: 5.49 µM
  TGI: 15.9 µM
[21]
  GI50: 6.19 µM
  TGI: 17.8 µM
[22]
  GI50: 8.35 µM
  TGI: 21.4 µM
[23]
  GI50: 12 µM
  TGI: 25.3 µM
[24]
  GI50: 0.0189 µM
  TGI: 0.0459 µM
[25]
  GI50: 3.02 µM
  TGI: 7.94 µM
[26]
  GI50: 14.3 µM
  TGI: 27.5 µM
[27]
  GI50: 12.1 µM
  TGI: 24.8 µM
[28]
  GI50: 7.72 µM
  TGI: 20.5 µM
[29]
  GI50: 15.3 µM
  TGI: 28.7 µM
[30]
  GI50: 13.1 µM
  TGI: 26 µM
[31]
  GI50: 11 µM
  TGI: 23.3 µM
[32]
  GI50: 8.37 µM
  TGI: 20.8 µM
[33]
  GI50: 5.49 µM
  TGI: 15.8 µM
[34]
  GI50: 6.37 µM
  TGI: 13.6 µM
[35]
  GI50: 12 µM
  TGI: 24.6 µM
[36]
  GI50: 6.86 µM
  TGI: 19.8 µM
[37]
  GI50: 13 µM
  TGI: 25.7 µM
[38]
  GI50: 9.62 µM
  TGI: 21.9 µM
[39]
  GI50: 5.47 µM
  TGI: 13.9 µM
[40]
  GI50: 13.4 µM
  TGI: 26.4 µM
[41]
  GI50: 12.3 µM
  TGI: 24.9 µM
[42]
  GI50: 13.2 µM
  TGI: 26.3 µM
[43]
  GI50: 0.986 µM
  TGI: 10.6 µM
[44]
  GI50: 0.968 µM
  TGI: 21.9 µM
[45]
  GI50: 7.69 µM
  TGI: 20.2 µM
[46]
  GI50: 2.23 µM
  TGI: 4.96 µM
[47]
  GI50: 5.87 µM
  TGI: 20.6 µM
